Test system: patients with chronic decompensated HF
Assay: FUSION I: clinical outcomes (death, hospitalization, days alive and out of hospital) through 12 weeks
Format: in vivo, human
Procedure: In this multicenter, open-label, pilot study, patients were randomly assigned to 1 of 3 treatment groups in a 1:1:1 ratio: (1) usual care, as determined by the investigating physician; (2) usual care plus nesiritide 0.005 μg/kg/min given for 4 to 6 hours, preceded by a 1.0-μg/kg bolus; or (3) usual care plus nesiritide 0.01 μg/kg/min given for 4 to 6 hours, preceded by a 2.0-μg/kg bolus (FIG. 1). The study treatment period was 12 weeks with an additional 4 weeks of follow-up. Nesiritide (Natrecor®) was supplied by Scios Inc., Fremont, Calif. Informed consent was obtained from each patient prior to enrollment, and the Ethics Committee of each institution prospectively approved the study.
The primary goal of this open-label study was to assess the safety and tolerability of different nesiritide doses administered as serial outpatient infusions. Safety and tolerability were measured through investigator reporting of adverse events (AEs), serious AEs, discontinuations of study infusions, laboratory assessments, and vital signs. An AE was defined as any new onset or worsening of any medical condition since study entry. A serious AE were those AEs, which lead to death, hospitalization, or prolonged hospitalization. The effect of nesiritide infusions on renal function was also monitored as a safety variable, with renal AEs defined as increased blood urea nitrogen (BUN) or serum creatinine levels (determined by investigator's discretion), onset of oliguria, or occurrence of acute renal failure. Clinical events were followed to further evaluate safety and tolerability.
To characterize treatment groups with respect to known prognostic factors for hospitalization or death, patients were prospectively stratified using a Risk Assessment Score (RAS). Two levels of risk were defined: patients with an RAS≧4 (i.e., with 4 or more of the 7 risk factors) and patients with an RAS<4. Risk factors utilized were: (1) serum creatinine of >2.0 mg/dl in the preceding 30 days; (2) NYHA class IV for the preceding 60 days; (3)≧65 years old; (4) history of sustained ventricular tachycardia; (5) ischemic etiology of HF; (6) diabetes; and (7) outpatient use of nesiritide or inotropic agents in preceding 6 months.
The effect of treatment was assessed with a 2-way ANOVA, an F test, a stratified Wilcoxon test, a Wilcoxon test, or the generalized Fisher's exact test, depending on the distribution of the variable. Kaplan-Meier estimates of the survival curves for morbidity/mortality time-to-event data were calculated. A log-rank or stratified log-rank test was used for comparisons between 2 treatment groups.

[1] = RAS ≧4 patients, 0.005 μg/kg/min, n = 24, through 12 weeks
[2] = RAS ≧4 patients, 0.01 μg/kg/min, n = 20, through 12 weeks
[3] = RAS ≧4 patients, both nesiritide groups, n = 44, through 12 weeks
[4] = all patients, 0.005 μg/kg/min, n = 72, through 12 weeks
[5] = all patients, 0.01 μg/kg/min, n = 69, through 12 weeks
[6] = all patients, both nesiritide groups, n = 141, through 12 weeks
[7] = baseline NYHA class IV, 0.005 μg/kg/min, n = 25
[8] = baseline NYHA class IV, 0.01 μg/kg/min, n = 22
[9] = baseline NYHA class IV, both nesiritide groups, n = 47
[10] = baseline NYHA class IV, both nesiritide groups, n = 47, p = 0.148 compared with usual care
[11] = lowest serum creatinine >2.0 mg/dL during 30 days prior to the study, 0.005 μg/kg/min, n = 13
[12] = lowest serum creatinine >2.0 mg/dL during 30 days prior to the study, 0.01 μg/kg/min, n = 14
[13] = lowest serum creatinine >2.0 mg/dL during 30 days prior to the study, both nesiritide groups, n = 27
[14] = lowest serum creatinine >2.0 mg/dL during 30 days prior to the study, both nesiritide groups, n = 27, p = 0.176 compared with usual care

Substance: Nesiritide: a recombinant form of human B-type natriuretic peptide (BNP)
- Hospitalizations compared with usual care (NYHA class IV status): trend towards a reduction
- All-cause death and hospitalization, % of patients [1]: 42%
- All-cause death and hospitalization, number of patients [1]: 10
- All-cause hospitalization, % of patients [1]: 42%
- All-cause hospitalization, number of patients [1]: 10
- Days alive and out of hospital, 25th percentile [1]: 74.6 days
- Days alive and out of hospital, Mean ± SD [1]: 76.3 ± 16.8 days
- Deaths, % of patients [1]: 4%
- Deaths, number of patients [1]: 1
- All-cause death and hospitalization, % of patients [2]: 65%
- All-cause death and hospitalization, number of patients [2]: 13
- All-cause hospitalization, % of patients [2]: 60%
- All-cause hospitalization, number of patients [2]: 12
- Days alive and out of hospital, 25th percentile [2]: 75.3 days
- Days alive and out of hospital, Mean ± SD [2]: 77.2 ± 14.0 days
- Deaths, % of patients [2]: 5%
- Deaths, number of patients [2]: 1
- All-cause death and hospitalization, % of patients [3]: 52%
- All-cause death and hospitalization, number of patients [3]: 23
- All-cause hospitalization, % of patients [3]: 50%
- All-cause hospitalization, number of patients [3]: 22
- Days alive and out of hospital, 25th percentile [3]: 75.0 days
- Days alive and out of hospital, Mean ± SD [3]: 76.7 ± 15.5 days
- Deaths, % of patients [3]: 5%
- Deaths, number of patients [3]: 2
- Days alive and out of the hospital compared to the usual care group (RAS≧4 cohort, p=0.027): statistically significant increase
- Deaths or hospitalizations compared with usual care only (RAS≧4 patients): statistically significantly fewer
- All-cause death and hospitalization, % of patients [4]: 46%
- All-cause death and hospitalization, number of patients [4]: 33
- All-cause hospitalization, % of patients [4]: 44%
- All-cause hospitalization, number of patients [4]: 32
- Days alive and out of hospital, 25th percentile [4]: 74.2 days
- Days alive and out of hospital, Mean ± SD [4]: 76.1 ± 15.3 days
- Deaths, % of patients [4]: 8%
- Deaths, number of patients [4]: 6
- All-cause death and hospitalization, % of patients [5]: 49%
- All-cause death and hospitalization, number of patients [5]: 34
- All-cause hospitalization, % of patients [5]: 48%
- All-cause hospitalization, number of patients [5]: 33
- Days alive and out of hospital, 25th percentile [5]: 79.0 days
- Days alive and out of hospital, Mean ± SD [5]: 78.9 ± 10.9 days
- Deaths, % of patients [5]: 4%
- Deaths, number of patients [5]: 3
- All-cause death and hospitalization, % of patients [6]: 48%
- All-cause death and hospitalization, number of patients [6]: 67
- All-cause hospitalization, % of patients [6]: 46%
- All-cause hospitalization, number of patients [6]: 65
- Days alive and out of hospital, 25th percentile [6]: 77.6 days
- Days alive and out of hospital, Mean ± SD [6]: 77.5 ± 13.3 days
- Deaths, % of patients [6]: 6%
- Deaths, number of patients [6]: 9
- Deaths or hospitalizations compared with usual-care group (all patients, each nesiritide dose group and all nesiritide group): no statistically significant differences
- Days alive and out of the hospital compared with usual-care patients (all patients, p=0.131): trends for increasing days alive and out of the hospital
- Days alive and out of hospital, Mean ± SD [7]: 73.3 ± 18.4 days
- Days alive and out of hospital, Median [7]: 84 days
- Patient deaths, % [7]: 8%
- Patient deaths, number [7]: 2
- Patients hospitalized, % [7]: 48%
- Patients hospitalized, number [7]: 12
- Days alive and out of hospital, Mean ± SD [8]: 77.7 ± 13.5 days
- Days alive and out of hospital, Median [8]: 82 days
- Patient deaths, % [8]: 5%
- Patient deaths, number [8]: 1
- Patients hospitalized, % [8]: 55%
- Patients hospitalized, number [8]: 12
- Days alive and out of hospital, Median [9]: 83 days
- Patient deaths, % [9]: 6%
- Patient deaths, number [9]: 3
- Patients hospitalized, % [10]: 51%
- Patients hospitalized, number [10]: 24
- Days alive and out of hospital, Mean ± SD (baseline NYHA class IV, both nesiritide groups, n = 47, p = 0.182 compared with usual care): 75.4 ± 16.2 days
- Days alive and out of hospital compared to usual care alone (elevated serum creatinine, >2.0 mg/dL): statistically significant increase
- Days alive and out of hospital, Mean ± SD [11]: 75.7 ± 19.0 days
- Days alive and out of hospital, Median [11]: 84 days
- Patient deaths, % [11]: 8%
- Patient deaths, number [11]: 1
- Patients hospitalized, % [11]: 46%
- Patients hospitalized, number [11]: 6
- Days alive and out of hospital, Mean ± SD [12]: 78.4 ± 9.0 days
- Days alive and out of hospital, Median [12]: 81 days
- Patient deaths, % [12]: 7%
- Patient deaths, number [12]: 1
- Patients hospitalized, % [12]: 57%
- Patients hospitalized, number [12]: 8
- Days alive and out of hospital, Median [13]: 81 days
- Patient deaths, % [13]: 7%
- Patient deaths, number [13]: 2
- Days alive and out of hospital, Mean ± SD (lowest serum creatinine >2.0 mg/dL during 30 days prior to the study, both nesiritide groups, n = 27, p = 0.019 compared with usual care): 77.1 ± 14.7 days
- Patients hospitalized, % [14]: 52%
- Patients hospitalized, number [14]: 14

Reference: US20050113286A1, “Methods for treating congestive heart failure” (priority 2002, published 2005)
